Results reported in patent US20230135152A1 (ACURASTEM INCORPORATED, priority 2020, published 2023).

Assays:
[1] = target: T1, PIKFYVE (Homo sapiens, UniProt Q9Y2I7); assay: PIKFYVE assay (luciferase ADP-Glo kinase assay, Promega); format: biochemical
In short: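 ADP generated in the kinase reaction was detected by ADP-Glo luminescence (luciferase).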

[2] = target: T1, PIKFYVE; assay: Cell-based Pikfyve inhibition activity assay (EEA1 staining, mean vesicle size in BJ fibroblast cells); conditions: Table 4, 4 hours treatment, 3 μM Apilimod = 100% inhibition
In short: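 BJ fibroblasts treated 4 h at 37° C with eleven 3-fold doses (0.03-3000 nM), then fixed and stained for EEA1. Confocal images (20×, 16 tiles/well) analysed for mean vesicle size. Normalised to 0.5% DMSO (0%) and 3 μM apilimod (100%); dose-response fitted with variable slope.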

T1 sequence (Q9Y2I7 whole entry): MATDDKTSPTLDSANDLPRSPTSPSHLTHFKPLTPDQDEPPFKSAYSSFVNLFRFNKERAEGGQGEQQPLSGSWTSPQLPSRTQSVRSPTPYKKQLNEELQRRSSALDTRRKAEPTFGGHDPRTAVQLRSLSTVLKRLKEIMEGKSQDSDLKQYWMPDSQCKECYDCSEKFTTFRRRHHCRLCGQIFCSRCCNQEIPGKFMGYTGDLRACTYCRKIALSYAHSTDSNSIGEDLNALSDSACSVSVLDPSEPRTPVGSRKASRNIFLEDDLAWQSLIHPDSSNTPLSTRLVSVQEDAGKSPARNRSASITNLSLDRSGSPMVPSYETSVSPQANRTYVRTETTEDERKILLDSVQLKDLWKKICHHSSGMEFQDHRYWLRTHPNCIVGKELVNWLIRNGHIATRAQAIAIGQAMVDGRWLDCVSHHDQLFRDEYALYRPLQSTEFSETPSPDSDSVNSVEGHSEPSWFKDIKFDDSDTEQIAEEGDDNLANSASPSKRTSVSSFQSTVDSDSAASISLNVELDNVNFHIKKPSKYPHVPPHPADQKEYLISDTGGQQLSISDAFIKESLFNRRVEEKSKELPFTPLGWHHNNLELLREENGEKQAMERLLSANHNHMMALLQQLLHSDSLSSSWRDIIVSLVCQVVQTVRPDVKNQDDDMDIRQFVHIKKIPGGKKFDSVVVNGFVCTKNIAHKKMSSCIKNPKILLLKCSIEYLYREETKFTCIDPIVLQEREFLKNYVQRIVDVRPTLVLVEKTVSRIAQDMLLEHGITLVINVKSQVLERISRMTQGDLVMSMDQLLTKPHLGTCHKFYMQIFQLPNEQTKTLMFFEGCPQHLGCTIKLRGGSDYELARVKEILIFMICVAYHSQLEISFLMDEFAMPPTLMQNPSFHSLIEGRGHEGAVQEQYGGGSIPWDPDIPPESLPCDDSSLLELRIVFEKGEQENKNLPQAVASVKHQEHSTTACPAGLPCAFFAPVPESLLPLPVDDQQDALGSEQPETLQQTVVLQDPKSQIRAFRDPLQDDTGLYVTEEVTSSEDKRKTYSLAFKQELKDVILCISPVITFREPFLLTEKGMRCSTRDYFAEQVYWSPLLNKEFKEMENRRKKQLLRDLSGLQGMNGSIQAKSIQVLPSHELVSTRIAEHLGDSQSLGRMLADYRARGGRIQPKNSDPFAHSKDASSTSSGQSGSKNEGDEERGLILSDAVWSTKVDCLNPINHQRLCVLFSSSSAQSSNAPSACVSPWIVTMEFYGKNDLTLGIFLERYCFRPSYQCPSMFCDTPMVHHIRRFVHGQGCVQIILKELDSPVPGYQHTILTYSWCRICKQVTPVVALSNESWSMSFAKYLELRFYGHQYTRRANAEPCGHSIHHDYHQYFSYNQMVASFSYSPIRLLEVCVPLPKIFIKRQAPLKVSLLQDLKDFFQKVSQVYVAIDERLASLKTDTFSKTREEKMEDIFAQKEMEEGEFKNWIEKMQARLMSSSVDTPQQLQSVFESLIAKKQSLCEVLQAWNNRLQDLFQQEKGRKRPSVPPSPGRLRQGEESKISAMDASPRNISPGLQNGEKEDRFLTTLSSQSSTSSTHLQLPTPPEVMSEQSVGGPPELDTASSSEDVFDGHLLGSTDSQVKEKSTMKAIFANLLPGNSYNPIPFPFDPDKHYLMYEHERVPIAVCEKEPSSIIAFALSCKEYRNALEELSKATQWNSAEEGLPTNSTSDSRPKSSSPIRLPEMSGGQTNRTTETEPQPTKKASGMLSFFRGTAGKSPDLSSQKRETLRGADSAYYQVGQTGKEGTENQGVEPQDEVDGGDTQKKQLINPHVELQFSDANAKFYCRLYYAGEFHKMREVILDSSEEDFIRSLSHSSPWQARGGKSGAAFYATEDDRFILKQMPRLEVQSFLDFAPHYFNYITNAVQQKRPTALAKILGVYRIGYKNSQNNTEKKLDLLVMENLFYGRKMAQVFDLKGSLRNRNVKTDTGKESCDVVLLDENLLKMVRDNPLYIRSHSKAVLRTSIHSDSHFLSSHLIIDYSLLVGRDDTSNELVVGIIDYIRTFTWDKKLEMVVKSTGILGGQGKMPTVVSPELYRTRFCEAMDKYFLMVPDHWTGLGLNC

Compound	IC50 ([1]; Table 3)	EC50 [2]	IC50 ([1]; Table 2)
Cc1cccc(-c2ccn(-c3cc(N4CCOCC4)nc([C@H]4C[C@H](O)CO4)n3)n2)c1 [Compound 332, (3S,5R)-5-(4-morpholino-6-(3-(m-tolyl)-1H-pyrazol-1-yl)pyrimidin-2-yl)tetrahydrofuran-3-ol]	3 to 10 nM	500 to 5000 nM	
Cc1cccc(-c2ccn(-c3cc(N4CCOCC4)nc(N4CCCC4=O)n3)n2)c1 [Compound 61, 1-(4-morpholino-6-(3-(m-tolyl)-1H-pyrazol-1-yl)pyrimidin-2-yl)pyrrolidin-2-one]		100 to 500 nM	5 to 100 nM
COCC(O)c1nc(N2CCOCC2)cc(-n2ccc(-c3cccc(C)c3)n2)n1 (centres unmarked) [Compound 155, 2-methoxy-1-(4-morpholino-6-(3-(m-tolyl)-1H-pyrazol-1-yl)pyrimidin-2-yl)ethan-1-ol]	3 to 10 nM	100 to 500 nM	
COC(CC#N)c1nc(N2CCOCC2)cc(-n2ccc(-c3ccccc3)n2)n1 (centres unmarked) [Compound 182, 3-methoxy-3-(4-morpholino-6-(3-phenyl-1H-pyrazol-1-yl)pyrimidin-2-yl)propanenitrile]	10 to 100 nM	500 to 5000 nM	
CO[C@@H](CO)c1nc(N2CCOCC2)cc(-n2ccc(-c3cccc4ncsc34)n2)n1 [Compound 275, (R)-2-(4-(3-(benzo[d]thiazol-7-yl)-1H-pyrazol-1-yl)-6-morpholinopyrimidin-2-yl)-2-methoxyethan-1-ol]	100 to 5000 nM	> 5000 nM	
COC(Cc1ccccc1)c1nc(N2CCOCC2)cc(-n2ccc(-c3ccccc3)n2)n1 (centres unmarked) [Compound 177, 4-(2-(1-methoxy-2-phenylethyl)-6-(3-phenyl-1H-pyrazol-1-yl)pyrimidin-4-yl)morpholine]	10 to 100 nM	500 to 5000 nM	
Cn1nccc1CC(O)c1nc(N2CCOCC2)cc(-n2ccc(-c3ccccc3)n2)n1 (centres unmarked) [Compound 201, 2-(1-methyl-1H-pyrazol-5-yl)-1-(4-morpholino-6-(3-phenyl-1H-pyrazol-1-yl)pyrimidin-2-yl)ethan-1-ol]	10 to 100 nM	500 to 5000 nM	
COc1cccc(-c2ccn(-c3cc(N4CCOCC4)nc([C@@H](CO)OC)n3)n2)c1 [Compound 262, (S)-2-methoxy-2-(4-(3-(3-methoxyphenyl)-1H-pyrazol-1-yl)-6-morpholinopyrimidin-2-yl)ethan-1-ol]	10 to 100 nM	100 to 500 nM	
Cc1cccc(-c2ccn(-c3cc(N4CCOCC4)nc(N(C)C)n3)n2)c1 [Compound 107, N,N-dimethyl-4-morpholino-6-(3-(m-tolyl)-1H-pyrazol-1-yl)pyrimidin-2-amine]	10 to 100 nM	500 to 5000 nM	
N#CCC(O)c1nc(N2CCOCC2)cc(-n2ccc(-c3ccccc3)n2)n1 (centres unmarked) [Compound 181, 3-hydroxy-3-(4-morpholino-6-(3-phenyl-1H-pyrazol-1-yl)pyrimidin-2-yl)propanenitrile]	10 to 100 nM	500 to 5000 nM	
Cc1cccc(-c2cc(CN(C)C)n(-c3cc(N4CCOCC4)nc(OCC4(C)COC4)n3)n2)c1 [Compound 206, N,N-dimethyl-1-(1-(2-((3-methyloxetan-3-yl)methoxy)-6-morpholinopyrimidin-4-yl)-3-(m-tolyl)-1H-pyrazol-5-yl)methanamine]	3 to 10 nM	500 to 5000 nM	
CO[C@H](CO)c1nc(N2CCOCC2)cc(-n2nc(-c3ccccc3)cc2C)n1 (single isomer, unassigned) [Compound 205]	10 to 100 nM	500 to 5000 nM	
COC(C)(C)c1nc(N2CCOCC2)cc(-n2ccc(-c3cccc(C)c3)n2)n1 [Compound 347, 4-(2-(2-methoxypropan-2-yl)-6-(3-(m-tolyl)-1H-pyrazol-1-yl)pyrimidin-4-yl)morpholine]	3 to 10 nM	100 to 500 nM	
CO[C@H](CO)c1nc(N2CCOCC2)cc(-n2nc(-c3csc4ccccc34)cc2C)n1 [Compound 278, (S)-2-(4-(3-(benzo[b]thiophen-3-yl)-5-methyl-1H-pyrazol-1-yl)-6-morpholinopyrimidin-2-yl)-2-methoxyethan-1-ol]	< 3 nM	500 to 5000 nM	
Cc1cccc(-c2ccn(-c3cc(N4CCOCC4)nc(OC[C@H](O)c4ccccc4)n3)n2)c1 (single isomer, unassigned) [Compound 58]		20 to 100 nM	< 5 nM

Now from value to compound:

IC50 ([1]; Table 3)	EC50 [2]	IC50 ([1]; Table 2)	Compound
	20 to 100 nM	< 5 nM	Cc1cccc(-c2ccn(-c3cc(N4CCOCC4)nc(OCc4cccnn4)n3)n2)c1 [Compound 54, 4-(2-(pyridazin-3-ylmethoxy)-6-(3-(m-tolyl)-1H-pyrazol-1-yl)pyrimidin-4-yl)morpholine]
< 3 nM	20 to 100 nM		CCc1cc(-c2ccccc2)nn1-c1cc(N2CCOCC2)nc(OCCc2cnn(C)c2)n1 [Compound 218, 4-(6-(5-ethyl-3-phenyl-1H-pyrazol-1-yl)-2-(2-(1-methyl-1H-pyrazol-4-yl)ethoxy)pyrimidin-4-yl)morpholine]
3 to 10 nM	100 to 500 nM		COCc1cccc(-c2ccn(-c3cc(N4CCOCC4)nc([C@@H](CO)OC)n3)n2)c1 [Compound 276, (S)-2-methoxy-2-(4-(3-(3-(methoxymethyl)phenyl)-1H-pyrazol-1-yl)-6-morpholinopyrimidin-2-yl)ethan-1-ol]
< 3 nM	100 to 500 nM		Cc1cccc(-c2ccn(-c3cc(N4CCOCC4)nc(OCC4(C)COC4)n3)n2)c1 [Compound 176, 4-(2-((3-methyloxetan-3-yl)methoxy)-6-(3-(m-tolyl)-1H-pyrazol-1-yl)pyrimidin-4-yl)morpholine]
10 to 100 nM	> 5000 nM		Cc1cc(-c2cccc3c2OCCN3)nn1-c1cc(N2CCOCC2)nc(OCCc2cnn(C)c2)n1 [Compound 245, 8-(5-methyl-1-(2-(2-(1-methyl-1H-pyrazol-4-yl)ethoxy)-6-morpholinopyrimidin-4-yl)-1H-pyrazol-3-yl)-3,4-dihydro-2H-benzo[b][1,4]oxazine]
100 to 5000 nM	> 5000 nM		Cn1cc(CCOc2nc(N3CCOCC3)cc(-n3ccc(Oc4ccncc4)n3)n2)cn1 [Compound 303, 4-(2-(2-(1-methyl-1H-pyrazol-4-yl)ethoxy)-6-(3-(pyridin-4-yloxy)-1H-pyrazol-1-yl)pyrimidin-4-yl)morpholine]
3 to 10 nM	100 to 500 nM		CCc1cccc(-c2ccn(-c3cc(N4CCOCC4)nc([C@@H](CO)OC)n3)n2)c1 [Compound 272, (S)-2-(4-(3-(3-ethylphenyl)-1H-pyrazol-1-yl)-6-morpholinopyrimidin-2-yl)-2-methoxyethan-1-ol]
> 5000 nM	> 5000 nM		CCCc1ccn(-c2cc(N3CCOCC3)nc(OCCc3cnn(C)c3)n2)n1 [Compound 124, 4-(2-(2-(1-methyl-1H-pyrazol-4-yl)ethoxy)-6-(3-propyl-1H-pyrazol-1-yl)pyrimidin-4-yl)morpholine]
	< 20 nM	< 5 nM	CC(=O)NCCOc1nc(N2CCOCC2)cc(-n2ccc(-c3cccc(C)c3)n2)n1 [Compound 90, N-(2-((4-morpholino-6-(3-(m-tolyl)-1H-pyrazol-1-yl)pyrimidin-2-yl)oxy)ethyl) acetamide]
3 to 10 nM	500 to 5000 nM		CC[C@@H](OC)c1nc(N2CCOCC2)cc(-n2ccc(-c3cccc(C)c3)n2)n1 (single isomer, unassigned) [Compound 322]
10 to 100 nM	500 to 5000 nM		Cc1cccc(-c2ccn(-c3cc(N4CCOCC4)nc(OCCCc4ccco4)n3)n2)c1 [Compound 112, 4-(2-(3-(furan-2-yl)propoxy)-6-(3-(m-tolyl)-1H-pyrazol-1-yl)pyrimidin-4-yl)morpholine]
	20 to 100 nM	< 5 nM	Cn1cc(CCOc2nc(N3CCOCC3)cc(-n3ccc(C(=O)Nc4ccccc4)n3)n2)cn1 [Compound 64, 1-(2-(2-(1-methyl-1H-pyrazol-4-yl)ethoxy)-6-morpholinopyrimidin-4-yl)-N-phenyl-1H-pyrazole-3-carboxamide]
3 to 10 nM	100 to 500 nM		CCc1cccc(-c2ccn(-c3cc(N4CCOCC4)nc([C@H](CO)OC)n3)n2)c1 [Compound 273, (R)-2-(4-(3-(3-ethylphenyl)-1H-pyrazol-1-yl)-6-morpholinopyrimidin-2-yl)-2-methoxyethan-1-ol]
10 to 100 nM	500 to 5000 nM		Cc1cccc(-c2ccn(-c3cc(N4CCOCC4)nc(OCCn4cnc(CN(C)C)c4)n3)n2)c1 [Compound 117, N,N-dimethyl-1-(1-(2-((4-morpholino-6-(3-(m-tolyl)-1H-pyrazol-1-yl)pyrimidin-2-yl)oxy)ethyl)-1H-imidazol-4-yl)methanamine]
	20 to 100 nM	< 5 nM	Cc1cccc(-c2cc(CN(C)C)n(-c3cc(N4CCOCC4)nc(OCCc4cnn(C)c4)n3)n2)c1 [Compound 86, N,N-dimethyl-1-(1-(2-(2-(1-methyl-1H-pyrazol-4-yl)ethoxy)-6-morpholinopyrimidin-4-yl)-3-(m-tolyl)-1H-pyrazol-5-yl)methanamine]
3 to 10 nM	100 to 500 nM		Cc1ccc(C)c(-c2ccn(-c3cc(N4CCOCC4)nc(OCCc4cnn(C)c4)n3)n2)c1 [Compound 197, 4-(6-(3-(2,5-dimethylphenyl)-1H-pyrazol-1-yl)-2-(2-(1-methyl-1H-pyrazol-4-yl)ethoxy)pyrimidin-4-yl)morpholine]
3 to 10 nM	100 to 500 nM		COC[C@@H](O)c1nc(N2CCOCC2)cc(-n2ccc(-c3cccc(C)c3)n2)n1 (single isomer, unassigned) [Compound 170]
3 to 10 nM	100 to 500 nM		CCO[C@@H](CO)c1nc(N2CCOCC2)cc(-n2ccc(-c3cccc(C)c3)n2)n1 (single isomer, unassigned) [Compound 312]
10 to 100 nM	100 to 500 nM		Cc1cccc(-c2ccn(-c3cc(N4CCOCC4)nc(OCCOc4ccccc4)n3)n2)c1 [Compound 93, 4-(2-(2-phenoxyethoxy)-6-(3-(m-tolyl)-1H-pyrazol-1-yl)pyrimidin-4-yl)morpholine]
